Laboratory results reported in patent publication EP1459760A9, “Immunopotentiating inosine monophosphate 5'-nucleotidase resistant derivatives and uses thereof” (UNIVERSITY OF SOUTH FLORIDA, priority 1995, dated 1996).

Columns and labels:
influenza virus = test system: influenza virus; design: species or system NMRI mice; conditions: mouse, in vivo
[1] = test system: 5'-nucleotidase (from Crotalus atrox venom); type: biochemical
5'-nucleotidase = test: Percent hydrolysis by 5'-nucleotidase, further set of experiments; type: biochemical, Crotalus atrox; conditions: 20 minutes, 200 µl
[2] = in vivo; cited from earlier work

CC(C)CCCC(C)CCCC(C)CCCCC(C)CCCC(C)CCCC(C)C (stereo not drawn) [Squalane]
effect on survivors and MST (influenza virus): no effect

Nc1ncnc2c1ncn2[C@@H]1O[C@H](COP(=O)(O)O)[C@@H](O)[C@H]1O [Adenosine MP, adenosine-5'-monophosphate]
Hydrolysis (%) [1]: 86.0%
Percent hydrolysis by 5'-nucleotidase (5'-nucleotidase; Assay 1): 100.0%
Percent hydrolysis by 5'-nucleotidase (5'-nucleotidase; Assay 2): 95.1%
Percent hydrolysis by 5'-nucleotidase (5'-nucleotidase; Assay 3): 63.7%

isoprinosine
half-life [2]: less than four
